Results on one compound are retold here after US8222031B2, “Three-dimensional skin model” (Fraunhofer-Gesellschaft zur Foerderung der angewandten …, priority 2000, dated 2012).

What all share (assay type): cell-based
Data set [1] concerns three-dimensional human skin equivalent. Kind of data set: EZ4U test: cell metabolism (cytotoxicity) of skin equivalents. As for the experimental part: (§1) Substances samples were used equivalently for testing on the human skin equivalent. The objective was to study any irritating effect of the samples on the full skin model after 48 hours of incubation time via the EZ4U metabolism. The secretion of Il1α and PGE2 was supposed to be determined in the media supernatants after 24 hours and after 48 hours by ELISA. Different concentrations of SDS were also run as a reference substance. Finally, all tested skin equivalents were fixed, and the morphological structure was tested and evaluated with stained paraffin sections.
The skin equivalents each were prepared in a 6-well with 1 ml of medium (KBM without hEGF, without BPE, and with 1.8 mM CaCl2). The samples were incubated on the surface of the corresponding skin models according to the following schedule: […]
The EZ4U test was performed as followed: After 48 hours of incubation, the cell metabolism of the individual skin equivalents was determined photometrically using a vital stain (tetrazolium derivative). […] Turnover kinetics of the negative controls, positive controls, and the equivalents treated with the samples were recorded over a period of 2 hours at 450 nm (with a reference wavelength of 620 nm). […] Both Ec50 and Et50 were determined for SDS. Et50 was determined according to different exposure times from 1% SDS (3 sec, 30 sec, 60 sec, 5 min, 15 min). […]

For data set [2] the test system is unchanged. In words: Il1α secretion in media supernatants of skin equivalents by ELISA. As for the experimental part: as §1
(§2) The skin equivalents each were prepared in a 6-well with 1 ml of medium (KBM without hEGF, without BPE, and with 1.8 mM CaCl2). The samples were incubated on the surface of the corresponding skin models according to the following schedule:
(§3) Day 1: Application of 3 μl substance in the morning and in the afternoon.
Day 2: Media replacement and freezing of media supernatants for Il1α und PGE2 determination. […]
(§4) The Il1α and PGE2 content in the media supernatants was determined after 24 hours and 48 hours of incubation of the samples using commercially available ELISA test kits and following their instructions.
The induced secretion of cytokine Il1α was quantified by ELISA first after 24 hours and then after a subsequent, additional incubation for 24 hours with test substances in the media supernatants of the equivalents. […]
A general note: In an ELISA, binding on a coated surface is turned into a signal by an enzyme label.

The test system is the same in data set [3]. Kind of data set: PGE2 synthesis in media supernatants of skin equivalents by ELISA. As for the experimental part:
as §1, §2, §3
Day 2: Media replacement and freezing of media supernatants for Il1α und PGE2 determination. Treatment with 3 μl substance in the morning and in the afternoon.
Day 3: Freezing of media supernatants for Il1α und PGE2 determination. Determination of cell metabolism in EZ4U test over a period of 2 hours. Fixation of slides and preparation of stained paraffin sections for histological evaluation.
as §4
The synthesis of the PGE2 inflammatory mediator was quantitatively determined by ELISA in the skin model after a first incubation for 24 hours and subsequent second incubation for 24 hours with test substances in the media supernatants of the equivalents. Samples 186-355 as well as different concentrations of SDS were used as test substances.

Regarding `CCCCCCCCCCCCOS(=O)(=O)[O-].[Na+]` [SDS], the “Change (in percent) of cell metabolism after 48 hours of incubation, in relation to untreated control (100%)” value in data set [1] (AST-2000, SDS 0.73% (Ec50 from dose/effect curve)) is given as 50%. For the same compound, in data set [1] (SDS reference, dose/effect curve), the “Ec50 (concentration that causes 50% cell damage; irritation threshold)” value turned out to be 0.73%. Moreover, the “Il1α secretion, maximum” value in data set [2] (1% SDS, first 24 h incubation) is “more than 100 pg/ml per skin equivalent”. In data set [2] (SDS, second 24 h incubation), the “Il1α secretion after the second incubation” value is “remain overall elevated”. Moreover, the PGE2 synthesis in data set [3] (1% SDS, after the first 24 hours) was not below 4000 pg/ml per skin equivalent; in data set [3] (up to an SDS concentration of 0.5%), “almost unchanged low level”. For the same compound, the “PGE2 synthesis after the second 24-hour incubation” value in data set [3] (SDS, second 24-hour incubation) was “practically unchanged”.
